Laboratory results published in the supplement of paper PMC9386025.

Experiments:
Test in all cases: drug sensitivity score (DSS) (DSS (dimensionless)); higher = more sensitive (stronger drug response)
Kuramochi = system: Kuramochi
Method in brief: (§1)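 Ovarian cancer cell lines, with shRNA induced by 100 ng/ml doxycycline for at least three days, and patient-derived cultures were seeded at 1 000 – 1 500 cells per well in 384-well plates holding drugs pre-plated in five concentrations over a 10,000-fold range. After three days at 37 °C and 5.0 % CO2, viability was read as CellTiter-Glo luminescence on a PHERAstar FS. Each drug's dose-response curve was summarised as a drug sensitivity score calculated as previously described.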

FIMM-PDC5 = patient-derived ovarian cancer cells; settings: genetic perturbation: none (patient-derived cell culture)
Method in brief: as §1

FIMM-PDC1 = patient-derived ovarian cancer cells; settings: genetic perturbation: none (patient-derived cell culture)
Method in brief: as §1

FIMM-PDC6 = patient-derived ovarian cancer cells; settings: genetic perturbation: none (patient-derived cell culture)
Method in brief: as §1

FIMM-PDC7 = patient-derived ovarian cancer cells; settings: genetic perturbation: none (patient-derived cell culture)
Method in brief: as §1

JHOS2 = system: JHOS2
Method in brief: as §1

FIMM-PDC4 = patient-derived ovarian cancer cells; settings: genetic perturbation: none (patient-derived cell culture)
Method in brief: as §1

OVSAHO = system: OVSAHO
Method in brief: as §1

FIMM-PDC3 = patient-derived ovarian cancer cells; settings: genetic perturbation: none (patient-derived cell culture)
Method in brief: as §1

[1] = genetic perturbation: DOX-induced PTK7 shRNA knockdown
[2] = genetic perturbation: DOX-induced control shRNA

SMILES | drug sensitivity score (Kuramochi; [1]) | drug sensitivity score (Kuramochi; [2]) | drug sensitivity score (FIMM-PDC5) | drug sensitivity score (FIMM-PDC1) | drug sensitivity score (FIMM-PDC6) | drug sensitivity score (FIMM-PDC7) | drug sensitivity score (JHOS2; [1]) | drug sensitivity score (JHOS2; [2]) | drug sensitivity score (FIMM-PDC4) | drug sensitivity score (OVSAHO; [1]) | drug sensitivity score (OVSAHO; [2]) | drug sensitivity score (FIMM-PDC3)
CC(C)(C)C[C@@H]1N[C@@H](C(=O)N[C@H]2CC[C@H](O)CC2)[C@H](c2cccc(Cl)c2F)[C@]12C(=O)Nc1cc(Cl)ccc12 | 1.9 | 0.8 | 15.8 | < 0 | 10.5 | 5 | 4.8 | 0.1 | 8.1 | 2.7 | 1.2 | 4.9
CC(C)(C)c1cc(NC(=O)Nc2ccc(Oc3ccnc4[nH]c(=O)cnc34)cc2F)n(-c2ccccc2)n1 | 2.15 | 9.4 | 0.3 | 3.9 | 0.4 | 0.3 | 1.8 | 8.3 | 0.7 | 3.9 | 9.1 | 4.2
CC(C)Oc1ccc(C(=O)N[C@H](CNC(=O)CN(C)C)Cc2ccc(-c3cn4cccc([C@H](C)O)c4n3)cc2)cc1Cl | 15.1 | 2.5 | 14.9 | 12.7 | 0.2 | 4.2 | 8.9 | 6.4 | 6 | 7.7 | 9.5 | 11.9
CCc1cncnc1N1CCN(Cc2nc3ccc(C(F)(F)F)cc3[nH]2)CC1 | 2.3 | 0.8 | 2.9 | 1.9 | 8.9 | 4.3 | 0.1 | 0.7 | 3.2 | 1.2 | 2 | 0.5
CCn1c(-c2nonc2N)nc2c(C#CC(C)(C)O)ncc(OC[C@H]3CCCNC3)c21 | 0.9 | < 0 | 8.3 | 7.3 | 5.7 | 11.5 | < 0 | 0.5 | 7.2 | < 0 | 4.8 | 1.5
CCn1cc(-c2ccnc3[nH]c(-c4cccc(CN(C)C)c4)cc23)c(-c2ccc(NC(=O)N(C)C)cc2)n1 | < 0 | < 0 | 4.1 | 2.25 | < 0 | 0.2 | < 0 | 0.4 | 2.9 | 0.4 | < 0 | 2.8
CN(C)CC#Cc1ccc(OCCCc2sc(N3CCc4cccc(C(=O)Nc5nc6ccccc6s5)c4C3)nc2C(=O)O)c(F)c1 | 4.55 | 9.9 | 31.9 | 18.7 | 30.1 | 19.3 | 6.3 | 0.5 | 14.1 | 23.3 | 2.6 | 16.8
CN1CCN(C2CCC(n3cc(-c4ccc(Oc5ccccc5)cc4)c4c(N)ncnc43)CC2)CC1 (centres undefined) | 16.8 | 12 | 18.4 | 5.85 | 14.7 | 7 | 9.9 | 11.5 | 18.6 | 18.9 | 10.8 | 14.6
CNC(=O)c1ccccc1Nc1nc(Nc2ccc3c(c2OC)CCC[C@H](N2CCN(CCO)CC2)C3)ncc1Cl | 7.7 | 6.3 | 10.2 | 7.5 | 5.3 | 5.5 | 7.1 | 5.6 | 9.6 | 12.4 | 7.5 | 6.9
CNc1ncc2cc(-c3cc(NC(=O)NCCC(C)(C)C)c(F)cc3C)c(C)nc2n1 | 11.6 | 6.2 | 18.2 | 1.85 | 14.3 | 6.2 | 7.6 | 13.6 | 11.9 | 12.2 | 9.2 | 7.4
CO[C@@H](C)Cn1c(=O)n(C)c2cnc3ccc(-c4cncc(C(C)(C)O)c4)cc3c21 | 8.4 | 8.4 | 16.8 | 6.85 | 12.6 | 11.6 | 7.2 | 8.5 | 12 | 11.3 | 8 | 6.9
COc1ccc2[nH]cc(/C=C3\C(=O)Nc4ccc(NC(=O)CCN5CCCCC5)cc43)c2c1 | 7.75 | 5.2 | 14.3 | 6.15 | 5.8 | 6.7 | 7.8 | 8 | 9.7 | 7.4 | 7.5 | 11
C[C@@H](Oc1cc(-n2cnc3ccc(CN4CCN(C)CC4)cc32)sc1C(N)=O)c1ccccc1C(F)(F)F | 12.6 | 6.3 | 24.1 | 9.8 | 1.6 | 8.5 | 25 | 7.5 | 12.1 | 16.7 | 8.4 | 12
C[C@@]1(C(=O)Nc2ccc(F)nc2)CCCN1c1nc(Nc2cc(C3CC3)n[nH]2)c2cccn2n1 | 5.25 | 5 | 14.1 | 13.8 | 4.1 | 16.6 | 6 | 4.4 | 11.5 | 7.2 | 8.9 | 10.8
Cc1c(-c2ccc(N3CCc4cccc(C(=O)Nc5nc6ccccc6s5)c4C3)nc2C(=O)O)cnn1CC12CC3CC(CC(C3)C1)C2 | 1.25 | 3.3 | 13.9 | 7.4 | 24.8 | 7.6 | 2.4 | < 0 | 1.2 | 19.8 | < 0 | 9.6
Cc1nc(Nc2n[nH]c3c2CN(C(=O)N[C@H](CN(C)C)c2ccccc2)C3(C)C)c2sccc2n1 | 12.3 | 8.6 | 20.8 | 9.6 | 14.8 | 11.8 | 16.6 | 13.6 | 16.6 | 11.1 | 15.3 | 14.3
Cc1nn(C)c(COc2ccc(N3CCN(S(=O)(=O)N(C)C)CC3)cc2)c1-c1cccc2c(CCCOc3cccc4ccccc34)c(C(=O)O)n(CCN3CCOCC3)c12 | 6.25 | 5.8 | 4.9 | 5.7 | 4.6 | 6.5 | 7.3 | 3.4 | 7.2 | 10.1 | 4.9 | 8.8
Cn1cc(C2=Nc3cc(NC(=O)C(N)C4CCCCC4)cc4c3C2=CNNC4=O)cn1 (centres undefined) | 7.35 | 3.5 | 10.7 | 12.8 | 6.4 | 6.8 | 4.7 | 4.9 | 6.2 | 9.2 | 5.1 | 16.4
O=C(NOC[C@H](O)CO)c1ccc(F)c(F)c1Nc1ccc(I)cc1F | 5.9 | 4 | 7.8 | < 0 | 3.9 | 3.1 | 0.6 | 6.2 | 9.4 | 4.6 | 4.2 | 3
O=C(Nc1ccc2[nH]nc(-c3ccncc3)c2c1)[C@@H]1CCN(CC(=O)N2CCN(c3ccc(-c4ncccn4)cc3)CC2)C1 | 12.6 | 8 | 22 | 0.35 | 16.7 | 10.2 | 4.1 | 12.8 | 18.4 | 13.4 | 8.5 | 7.4
COc1ccc(C[C@H](NC(=O)[C@H](C)NC(=O)CN2CCOCC2)C(=O)N[C@@H](Cc2ccccc2)C(=O)C2(C)CO2)cc1 (stereo in doubt) [ONX-0914] | 14.6 | 16.4 | 17.4 | 19.9 | 23.8 | 20.3 | 18.3 | 15.5 | 17.6 | 17.6 | 12.3 | 22.7
CC/C(=C(\c1ccc(O)cc1)c1ccc(OCCN(C)C)cc1)c1ccccc1 [4-hydroxytamoxifen] | 5.1 | 2.4 | 6 | 3.6 | 3 | 4.6 | 8.4 | 2.3 | 6 | 4.9 | 3.2 | 6
Nc1ncnc2c1nc(N)n2[C@@H]1O[C@H](CO)[C@@H](O)[C@H]1O [8-amino-adenosine] | 23.3 | 20.1 | 27.9 | 17.4 | 24.8 | 17.8 | 23.4 | 19.8 | 22.7 | 26.2 | 21.1 | 19.1
Nc1ncnc2c1nc(Cl)n2[C@@H]1O[C@H](CO)[C@@H](O)[C@H]1O [8-chloro-adenosine] | 5.75 | 12.1 | 20.2 | 7.45 | 10.4 | 13.8 | 12.9 | 9.4 | 5.9 | 18.4 | 6.9 | 6
CCN(CC)CCCC(C)Nc1ccnc2cc(Cl)ccc12 (centres undefined) [Chloroquine] | – | – | 9 | 7.6 | 5.8 | 7.7 | 8.4 | 7.8 | 9.1 | 8.6 | 5.8 | 8.8
Nc1ccn([C@@H]2O[C@H](CO)[C@@H](O)[C@@H]2O)c(=O)n1 [Cytarabine] | – | – | 10.5 | < 0 | 6 | 5.7 | 13.4 | 7.2 | 3.6 | 4.1 | < 0 | 2.1
Cc1ccc(C(=O)Nc2ccc(CN3CCN(C)CC3)c(C(F)(F)F)c2)cc1C#Cc1cnc2cccnn12 [Ponatinib] | 7.8 | 8 | – | – | – | – | 4.7 | 6.9 | – | 10.2 | 8.3 | –
CC[C@]1(O)C[C@H]2CN(CCc3c([nH]c4ccccc34)[C@@](C(=O)OC)(c3cc4c(cc3OC)N(C=O)[C@H]3[C@@](O)(C(=O)OC)[C@H](OC(C)=O)[C@]5(CC)C=CCN6CC[C@]43[C@@H]65)C2)C1 [Vincristine] | 4.75 | 2.7 | 6.4 | 14.9 | 0.5 | 5 | – | – | 8.9 | 3.4 | 9.1 | 13.8
